Results on 18 molecules are retold here after article PMC5708365, “Histone lysine methyltransferase structure activity relationships that allow for segregation of G9a inhibition and anti-Plasmodium activity” (MedChemComm, 2017).

Assay [1] deals with P. falciparum 3D7 strain parasites. The following applies: parasite-killing activity reported earlier, cited from earlier work; for IC50: read-out: Pf3D7 IC50.
For assay [2], the system named is G9a activity in cells (H3K9me2 levels). Conditions: reduction of H3K9me2 levels, ICW; cited from earlier work.
Assay [3] concerns the target T1, G9a (Homo sapiens, UniProt Q96KQ7).
T1 sequence (Q96KQ7 1-1210): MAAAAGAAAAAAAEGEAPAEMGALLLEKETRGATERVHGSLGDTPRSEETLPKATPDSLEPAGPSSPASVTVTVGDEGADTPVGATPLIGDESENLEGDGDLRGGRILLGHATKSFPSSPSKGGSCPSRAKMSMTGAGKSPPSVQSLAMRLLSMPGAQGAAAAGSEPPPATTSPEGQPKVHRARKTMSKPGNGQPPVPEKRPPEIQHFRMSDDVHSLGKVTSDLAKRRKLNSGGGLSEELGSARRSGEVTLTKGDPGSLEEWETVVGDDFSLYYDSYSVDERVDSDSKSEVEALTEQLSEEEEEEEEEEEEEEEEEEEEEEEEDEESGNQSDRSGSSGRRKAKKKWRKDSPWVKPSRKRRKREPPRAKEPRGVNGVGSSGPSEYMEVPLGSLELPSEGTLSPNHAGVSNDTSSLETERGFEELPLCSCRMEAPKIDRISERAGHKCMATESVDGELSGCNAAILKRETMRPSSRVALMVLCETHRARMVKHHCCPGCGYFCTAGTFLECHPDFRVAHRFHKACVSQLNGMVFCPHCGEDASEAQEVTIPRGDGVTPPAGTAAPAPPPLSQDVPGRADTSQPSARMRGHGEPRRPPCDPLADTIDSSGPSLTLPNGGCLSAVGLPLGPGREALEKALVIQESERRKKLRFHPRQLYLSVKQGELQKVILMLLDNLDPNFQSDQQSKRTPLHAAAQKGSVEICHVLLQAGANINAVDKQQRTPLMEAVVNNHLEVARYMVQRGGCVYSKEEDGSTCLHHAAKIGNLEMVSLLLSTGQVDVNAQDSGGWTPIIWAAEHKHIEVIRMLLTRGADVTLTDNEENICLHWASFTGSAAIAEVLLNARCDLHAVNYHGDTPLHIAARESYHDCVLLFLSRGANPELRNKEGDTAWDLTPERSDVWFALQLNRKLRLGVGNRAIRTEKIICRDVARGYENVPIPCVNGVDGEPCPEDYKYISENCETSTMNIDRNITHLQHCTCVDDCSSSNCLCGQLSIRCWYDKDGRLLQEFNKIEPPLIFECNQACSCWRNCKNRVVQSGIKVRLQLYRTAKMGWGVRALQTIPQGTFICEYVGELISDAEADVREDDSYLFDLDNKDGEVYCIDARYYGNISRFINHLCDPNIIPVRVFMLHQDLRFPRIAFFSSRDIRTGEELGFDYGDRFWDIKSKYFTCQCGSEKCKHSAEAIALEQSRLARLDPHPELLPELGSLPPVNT
Conditions: for IC50: read-out: G9a IC50.

The subject of assay [4] is HepG2 cells. The following applies: read-out: HepG2 IC50; Tables ST1 and ST2.
In assay [5] the test system is P. falciparum 3D7 strain parasites. Conditions: P. falciparum 3D7, three-day SYBR Green I assay.
Assay [6] relates to H3K4me3 levels in P. falciparum 3D7 parasites. Briefly: Parasite histone methylation analysis (Western blot), H3K4me3. Type of assay: cell-based. The following applies: 12 h treatment, relative to DMSO control. As to the method:
(§1) Parasites were treated with drugs for 12 h. After treatment, infected red blood cells were collected and lysed with PBS containing 0.15% saponin. Free parasites were lysed by bath sonication in 1% SDS-PBS and analysed by Western Blot. Blots were probed with primary antibodies specific for H3K4me3 (Abcam ab1012 1 : 1000), H3 core (Abcam ab1791, 1 : 3000) and H3K9me3 (Abcam ab8898, 1 : 1000) diluted in TBS-T (50 mM Tris pH 7.5, 150 mM NaCl, 0.05% Tween-20, 5% BSA), followed by anti-mouse HRP (GE NA931V) or anti-rabbit HRP (GE NA934V) secondary antibodies.

Assay [7] has as its system H3K9me3 levels in P. falciparum 3D7 parasites. Briefly: Parasite histone methylation analysis (Western blot), H3K9me3. Type of assay: cell-based. Conditions: 12 h treatment, relative to DMSO control. As to the method:
as §1

The test system of assay [8] is synchronised P. falciparum parasites. Briefly: In vitro stage-dependent antimalarial activity. Format: cell-based. Conditions: 10× IC50, three distinct 12 hour periods of the intra-erythrocytic life cycle; re-invasion and out-growth. As to the method: Stage-specific compound treatment effects were elucidated using highly synchronized parasites in 48-well plates with a starting parasitemia of 0.75% and a hematocrit of 2%. […] After treatment, parasites were washed with warm RPMI 1640 medium and placed back into culture without test compound for analysis of re-invasion after completion of the cell cycle in which treatment occurred. Washed parasites after treatment were also diluted 1 : 16 and allowed to grow without compound for an additional two cell cycles (4 days). Parasitemia after re-invasion or after 4 day growth was quantified on infected cells fixed in 0.025% glutaraldehyde and stained with 2× SYBR Green I (Lonza) in PBS.

For assay [9], the system named is P. falciparum 3D7 strain parasites. Nature of the assay: microbe, parasite or virus in culture. The following applies: Plasmodium falciparum, 3D7, 72 h, read-out: Pf3D7 IC50.
For assay [10], the target named is T1, G9a. Conditions: read-out: G9a IC50; CLOT assay; cited from earlier work.
Assay [11] relates to PfSET7. Nature of the assay: Initial activity assays using PfSET7. Format: biochemical, P. falciparum. Conditions: data not shown.
Assay [12] relates to HepG2 cells. Nature of the assay: cells. The following applies: Homo sapiens, HepG2, read-out: anti-HepG2 IC50.
Where [13] appears, read: SPA, 5 nM G9a, H3 1-25 peptide 0.8 μM, 3H-SAM 8 μM.

Structures are written as SMILES. Where two headings read alike, the source gives them in different places. Some results are limits rather than exact numbers.

For the molecule `COc1cc2c(NC3CCN(C)CC3)nc(N3CCCN(C)CC3)nc2cc1OCCCN1CCCC1` [compound 65], in assay [1] (P. falciparum 3D7), the concentration for half-maximal inhibition (IC50) is above 2 µM. Moreover, in assay [2], the “G9a activity in cells” value is listed as “moderate G9a activity in cells”.
In the case of `COc1cc2nc(N3CCOCC3)nc(NC3CCN(Cc4ccccc4)C3)c2cc1OC` (centres unmarked) [S15], the IC50 is 0.152 µM in assay [1] (Tables ST1-ST4, ref 1 (supplement)); above 1 µM in assay [3] (setting [13]); 15.3 µM in assay [4]. Moreover, in [3] (ratio of G9a IC50 to Pf3D7 IC50), the G9a/Pf3D7 is above 6.6.
For `COc1cc2nc(N3CCCN(C)CC3)nc(NC3CCN(C)CC3)c2cc1OC` [compound 38], in assay [1] (P. falciparum 3D7), the “Pf3D7 IC50” value was “low Pf3D7 activity” and the IC50 was above 0.3 µM.
For the molecule `COc1cc2nc(NCCCN(C)C)nc(NC3CCN(Cc4ccccc4)CC3)c2cc1OC` [compound 17], in [3] (setting [13]), the “G9a IC50” value was “good G9a inhibition” and the IC50 is 0.123 µM. Besides, in assay [5], the “Pf3D7 IC50” value was “poor potency against Plasmodium”.
Regarding `COc1cc2c(NC3CCN(C)CC3)nc(N3CCCN(C)CC3)nc2cc1OCCCN1CCCCC1` [compound 64], the IC50 in [1] (P. falciparum 3D7) was above 2 µM. For the same molecule, the “G9a activity in cells” value in [2] was “moderate G9a activity in cells”.
With `COc1cc2c(NC3CCN(C)CC3)nc(N3CCCN(C)CC3)nc2cc1OCCCN(C)C` [compound 66, reference compound], in assay [1] (P. falciparum 3D7), the IC50 was above 2 µM.
As for `COc1cc2nc(N3CCN(C)CC3)nc(NC3CCN(C)CC3)c2cc1OC` [compound 39], in assay [1] (P. falciparum 3D7), the “Pf3D7 IC50” value was “low Pf3D7 activity” and the IC50 was above 0.3 µM.
As to `COc1cc2nc(N3CCC(OC)CC3)cc(NC3CCN(Cc4ccccc4)CC3)c2cc1OC` [compound 90, N-(1-Benzylpiperidin-4-yl)-6,7-dimethoxy-2-(4-methoxypiperidin-1-yl)quinolin-4-amine], the IC50 in [3] (setting [13]) was 0.119 µM. Further, the H3K4me3 levels result in [6] is “decrease”. Besides, in [7], the H3K9me3 levels result is on record as “decrease”. The stage-dependent killing phenotype entry in assay [8] is reported as “erythrocytic stage-independent killing phenotype”.
For the molecule `COc1cc2nc(N3CCN(C)CC3)cc(NC3CCN(Cc4ccccc4)CC3)c2cc1OC` [compound 89, N-(1-Benzylpiperidin-4-yl)-6,7-dimethoxy-2-(4-methylpiperazin-1-yl)quinolin-4-amine], in [3] (setting [13]), the half-maximal inhibitory concentration (IC50) was 0.021 µM. Also, the H3K4me3 levels entry in [6] was “decrease”. The H3K9me3 levels result in assay [7] is “decrease”. Also, the stage-dependent killing phenotype entry in assay [8] is reported as “erythrocytic stage-independent killing phenotype”.
As to `COc1cc2c(NC3CCN(C)CC3)nc(NCCCN(C)C)nc2cc1OCc1ccccc1` [compound 63], in assay [3] (setting [13]), the half-inhibitory concentration (IC50) is above 1 µM. In addition, the “Pf3D7 IC50” value in assay [5] is “lost activity against Plasmodium”.
Regarding `COc1cc2c(NC3CCN(C)CC3)nc(N3CCCN(C)CC3)nc2cc1OCCN(C)C` [compound 67], the IC50 in [1] (P. falciparum 3D7) was above 2 µM.
For the molecule `CCN(CC)CCCC(C)Nc1ccnc2cc(Cl)ccc12` (centres unmarked) [Chloroquine], in assay [9], the IC50 was 0.008 µM.
Regarding `COCCCCOc1cc2nc(N3CCCN(C)CC3)nc(NC3CCN(C)CC3)c2cc1OC` [compound 71], the IC50 in [10] is above 10 µM.
On to `CCCCOc1cc2nc(N3CCN(C)CC3)nc(NC3CCN(Cc4ccccc4)CC3)c2cc1OC` [compound 79], for which the IC50 in assay [3] (setting [13]) was determined as 0.683 µM.
On the same count and under the same terms, the same measure for `COc1cc2nc(N3CCN(C)CC3)nc(NC3CCCN(Cc4ccccc4)C3)c2cc1OC` (centres unmarked) [compound 30]: around 1 µM; for `COc1cc2nc(N3CCCCC3)nc(NC3CCN(Cc4ccc(F)cc4)CC3)c2cc1OC` [compound 28]: 1.21 µM.
As to `COc1cc2nc(N3CCCN(C)CC3)nc(NC3CCN(Cc4ccccc4)CC3)c2cc1OC` [compound 1, reference compound], the H3K4me3 levels entry in assay [6] is “decrease”. Also, the H3K9me3 levels result in assay [7] is “decrease”. Besides, in assay [8], the stage-dependent killing phenotype entry is on record as “erythrocytic stage-independent killing phenotype”. In addition, the PfSET7 as target entry in assay [11] is listed as “PfSET7 not to be the target”.
`COc1cc2nc(N3CCCCC3)nc(NC3CCN(C)CC3)c2cc1OC` [compound 40]: the results for the IC50 in assay [12] and in assay [3] (setting [13]) were above 10 µM and 0.591 µM, respectively.
